Where a SMILES comes first, the peptide text is derived from it. [ ]: non-standard residue; d: D form. The star is where a group is joined. Dolaproine = CO[C@@H]([C@@H]1CCCN1)[C@@H](C)C(=O)O; Dil = CC[C@H](C)[C@H](NC)[C@@H](CC(=O)O)OC; X1 = C[C@@H](N*)[C@@H](O)c1ccccc1; NMeV = CN[C@H](C(=O)O)C(C)C
Assays:
KNS42 cells = test: Cell cycle distribution analysis; format: cell-based; conditions: 3-day incubation, 50 nM free toxin
Protocol: (§1) Cell cycle analysis was performed using a Nucleocounter NC-3000 system (ChemoMetec Denmark), using the manufacturers standard protocol for analyzing the cell cycle distribution of a population of cells, based on the DNA content of each cell. The percentage of cells in Sub-G1, G1, S, or G2/M-phases of the cell cycle was established from histogram analysis using the NucleoView NC-3000 software.

U937 cells = test: Cell cycle distribution analysis; format: cell-based; conditions: 3-day incubation, 50 nM free toxin
Protocol: as §1

THP-1 cells = test: Cell cycle distribution analysis; format: cell-based; conditions: 3-day incubation, 50 nM free toxin
Protocol: as §1

HT1080 cells = test: Cell cycle distribution analysis; format: cell-based; conditions: 3-day incubation, 50 nM free toxin
Protocol: as §1

uPARAP = target: T1, uPARAP (Homo sapiens, UniProt Q9UBG0); test: Western blotting of MG63 cell lysate; format: binding; parameters: endogenous in cells; host or cells: MG63 human osteosarcoma cells; conditions: detergent lysate of uPARAP-positive MG63 human osteosarcoma cells
T1 sequence (Q9UBG0 31-1479): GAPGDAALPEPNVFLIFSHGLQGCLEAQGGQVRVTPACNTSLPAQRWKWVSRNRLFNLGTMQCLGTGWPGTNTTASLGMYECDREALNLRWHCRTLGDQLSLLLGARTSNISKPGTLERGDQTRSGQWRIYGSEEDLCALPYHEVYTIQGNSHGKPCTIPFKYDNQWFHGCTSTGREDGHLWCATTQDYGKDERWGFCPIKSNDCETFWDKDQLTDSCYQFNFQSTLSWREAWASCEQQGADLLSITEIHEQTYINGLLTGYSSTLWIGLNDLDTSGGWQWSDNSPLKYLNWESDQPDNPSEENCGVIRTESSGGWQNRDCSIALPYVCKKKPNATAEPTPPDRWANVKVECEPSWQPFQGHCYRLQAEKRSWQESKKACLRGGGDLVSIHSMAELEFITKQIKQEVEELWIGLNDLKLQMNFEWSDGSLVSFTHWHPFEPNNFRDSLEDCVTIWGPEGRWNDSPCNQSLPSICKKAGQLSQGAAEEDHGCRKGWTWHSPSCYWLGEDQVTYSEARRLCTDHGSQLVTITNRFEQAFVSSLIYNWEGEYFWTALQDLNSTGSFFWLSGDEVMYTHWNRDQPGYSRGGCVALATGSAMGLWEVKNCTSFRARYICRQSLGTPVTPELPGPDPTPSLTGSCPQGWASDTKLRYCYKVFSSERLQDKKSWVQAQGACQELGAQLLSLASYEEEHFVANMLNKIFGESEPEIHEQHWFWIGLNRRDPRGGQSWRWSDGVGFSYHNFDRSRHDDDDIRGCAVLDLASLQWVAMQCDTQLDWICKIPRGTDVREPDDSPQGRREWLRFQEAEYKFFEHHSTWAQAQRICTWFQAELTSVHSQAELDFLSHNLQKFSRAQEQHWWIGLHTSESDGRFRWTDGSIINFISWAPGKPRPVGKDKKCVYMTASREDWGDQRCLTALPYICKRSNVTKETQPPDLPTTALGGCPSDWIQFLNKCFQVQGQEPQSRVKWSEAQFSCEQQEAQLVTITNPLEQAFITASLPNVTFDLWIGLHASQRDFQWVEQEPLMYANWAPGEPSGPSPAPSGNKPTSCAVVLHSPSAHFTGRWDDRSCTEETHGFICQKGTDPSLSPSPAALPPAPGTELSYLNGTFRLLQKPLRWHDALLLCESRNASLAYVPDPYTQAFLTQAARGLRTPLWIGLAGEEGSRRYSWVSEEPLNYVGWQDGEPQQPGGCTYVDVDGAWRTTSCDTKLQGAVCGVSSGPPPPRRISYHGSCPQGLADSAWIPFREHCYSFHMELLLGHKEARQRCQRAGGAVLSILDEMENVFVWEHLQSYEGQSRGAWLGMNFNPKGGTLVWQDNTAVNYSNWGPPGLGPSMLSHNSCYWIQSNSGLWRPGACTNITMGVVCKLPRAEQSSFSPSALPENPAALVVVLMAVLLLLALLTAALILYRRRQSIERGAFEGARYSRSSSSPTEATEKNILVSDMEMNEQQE
Protocol: For Western blotting, a detergent cell lysate prepared from uPARAP-positive MG63 human osteosarcoma cells was analyzed, using identical concentrations of “2h9 cloned” and “2h9 original” as the primary antibodies. […] No reaction is seen in the absence of primary antibody (negative control).

For CC[C@H](C)[C@@H]([C@@H](CC(=O)N1CCC[C@H]1[C@H](OC)[C@@H](C)C(=O)N[C@H](C)[C@@H](O)c1ccccc1)OC)N(C)C(=O)[C@@H](NC(=O)[C@@H](NC)C(C)C)C(C)C [MMAE, monomethyl auristatin E, reference compound] (H-[NMeV]V[Dil][Dolaproine]-X1), the Cell cycle distribution (KNS42 cells) was “shift in cell cycle distribution towards the Sub-G1 and G2/M phases”, the Cell cycle distribution (U937 cells) was “shift in cell cycle distribution towards the Sub-G1 and G2/M phases” and the Cell cycle distribution (THP-1 cells) was “shift in cell cycle distribution towards the Sub-G1 and G2/M phases”. For the same molecule, the Cell cycle distribution (HT1080 cells) was “shift in cell cycle distribution towards the Sub-G1 and G2/M phases”.

B1: 2h9 cloned: recombinant mAb 2h9 product produced in CHO cells from SEQ ID NO: 1 and SEQ ID NO: 5 (protein)
light: DIQMTQSPASQSASLGESVTITCLASQTIGTWLAWYQQKPGKSPQLLIYAATTLTDGVPSRFSGAGSGTKFSLKISSLQAEDFASYFCQEFFSTPFTFGSGTKLELKRADAAPTVSIFPPSSEQLTSGGASVVCFLNNFYPKDINVKWKIDGGERQNGVLNSWTDQDSKDSTYSMSSTLTLTKDEYERHNSYTCEATHKTSTSPIVKSFNRNEC
heavy: QVQLQQPGTELVRPGLSVKLSCKASGYTFTSYWMNWVKQRPGQGLEWIGMIHPSNDEKRINQKFKDKATLTVDKFSSTVYMQVSSPTSEDSAVYYCARGGGDYVGDYALDFWGQGTSVTVSSAKTTPPSVYPLAPGSAAQTNSMVTLGCLVKGYFPEPVTVTWNSGSLSSGVHTFPAVLQSDLYTLSSSVTVPSSTWPSETVTCNVAHPASSTKVDKKIVPRDCGCKPCICTVPEVSSVFIFPPKPKDVLTITLTPKVTCVVVDISKDDPEVQFSWFVDDVEVHTAQTQPREEQFNSTFRSVSELPIMHQDWLNGKEFKCRVNSAAFPAPIEKTISKTKGRPKAPQVYTIPPPKEQMAKDKVSLTCMITDFFPEDITVEWQWNGQPAENYKNTQPIMDTDGSYFIYSKLNVQKSNWEAGNTFTCSVLHEGLHNHHTEKSLSHSPGK
B1 was tested, and the “Reactivity in Western blotting” value (uPARAP) was “react specifically with the uPARAP protein” and the “Reactivity in Western blotting” value (uPARAP; listed as recombinant antibody product) was “specifically recognize uPARAP”.

— patent publication US11819552B2, “Antibody-drug conjugates targeting uPARAP” (RIGSHOSPITALET, priority 2016, dated 2023)
